Results as given in article doi:10.1101/2024.08.19.608619, “Discovery of potent SARS-CoV-2 nsp3 macrodomain inhibitors uncovers lack of translation to cellular antiviral response” (bioRxiv, 2024).
Like-named read-outs stand apart in the source and are kept apart here.

Tests used:
Test in all cases: biochemical
Design in all cases: In vitro kinase panel profiling, per cent remaining kinase activity at 10 uM
CK2α2(h) = target: T1, CK2α2(h) (Homo sapiens, UniProt P19784); settings: atp_concentration=10, read-out: % of control remaining
T1 construct: gene CSNK2A2
Source text: (§1) We derisk potential for off-target activity by profiling the compound in a CEREP panel, a standard secondary pharmacology assessment, as well as a kinase panel to derisk a potential hinge-binding motif in our leads, and a PARP panel to derisk activity against human […]. Reassuringly, the compounds are selective, with the only off-targets being moderate human CHRM2 and KOR receptors activity associated with ASAP-0011198.

ALK(h) = ALK(h) (Homo sapiens, UniProt Q9UM73); settings: atp_concentration=200, read-out: % of control remaining
Source text: as §1

Rse(h) = target: T2, Rse(h) (Homo sapiens, UniProt Q06418); settings: atp_concentration=45, read-out: % of control remaining
T2 construct: gene TYRO3
T2 sequence (Q06418 1-890): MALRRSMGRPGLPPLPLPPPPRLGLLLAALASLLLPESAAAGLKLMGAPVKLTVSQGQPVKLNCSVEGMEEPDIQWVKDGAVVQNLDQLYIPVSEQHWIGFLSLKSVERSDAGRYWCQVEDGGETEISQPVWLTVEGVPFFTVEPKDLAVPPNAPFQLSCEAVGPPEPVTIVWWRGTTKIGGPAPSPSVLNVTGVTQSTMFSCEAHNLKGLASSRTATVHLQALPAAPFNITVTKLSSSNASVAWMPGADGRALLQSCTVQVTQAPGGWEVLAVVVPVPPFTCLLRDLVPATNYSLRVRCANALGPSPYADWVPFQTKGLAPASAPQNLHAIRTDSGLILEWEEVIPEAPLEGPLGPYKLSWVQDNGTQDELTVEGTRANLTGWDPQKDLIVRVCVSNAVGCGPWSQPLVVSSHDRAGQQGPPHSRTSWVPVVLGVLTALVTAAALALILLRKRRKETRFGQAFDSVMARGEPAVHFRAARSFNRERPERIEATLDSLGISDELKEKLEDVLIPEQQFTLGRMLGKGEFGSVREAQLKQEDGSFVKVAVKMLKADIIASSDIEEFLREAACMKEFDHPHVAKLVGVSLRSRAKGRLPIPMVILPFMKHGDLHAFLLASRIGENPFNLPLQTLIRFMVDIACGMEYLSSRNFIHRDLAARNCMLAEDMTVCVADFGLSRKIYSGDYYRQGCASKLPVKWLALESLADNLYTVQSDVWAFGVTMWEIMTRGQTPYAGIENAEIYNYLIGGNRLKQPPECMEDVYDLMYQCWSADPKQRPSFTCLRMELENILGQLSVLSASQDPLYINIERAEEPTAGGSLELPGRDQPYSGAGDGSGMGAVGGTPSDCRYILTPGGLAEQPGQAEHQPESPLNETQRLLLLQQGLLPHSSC
Source text: as §1

EGFR(h) = EGFR(h) (Homo sapiens, UniProt P00533); settings: atp_concentration=10, read-out: % of control remaining
Source text: as §1

Abl(h) = target: T3, Abl(h) (Homo sapiens, UniProt P00519); settings: atp_concentration=45, read-out: % of control remaining
T3 construct: gene ABL1
Source text: as §1

SRPK1(h) = SRPK1(h) (Homo sapiens, UniProt Q96SB4); settings: atp_concentration=10, read-out: % of control remaining
Source text: as §1

MEK1(h) = target: T4, MEK1(h) (Homo sapiens, UniProt Q02750); settings: atp_concentration=10, read-out: % of control remaining
T4 construct: gene MAP2K1
Source text: as §1

GSK3β(h) = target: T5, GSK3β(h) (Homo sapiens, UniProt P49841); settings: atp_concentration=15, read-out: % of control remaining
T5 construct: gene GSK3B
Source text: as §1

PKBα(h) = target: T6, PKBα(h) (Homo sapiens, UniProt P31749); settings: atp_concentration=155, read-out: % of control remaining
T6 construct: gene AKT1
Source text: as §1

CK1γ1(h) = target: T7, CK1γ1(h) (Homo sapiens, UniProt Q9HCP0); settings: atp_concentration=15, read-out: % of control remaining
T7 construct: gene CSNK1G1
Source text: as §1

Pim-1(h) = target: T8, Pim-1(h) (Homo sapiens, UniProt P11309); settings: atp_concentration=90, read-out: % of control remaining
T8 construct: gene PIM1
Source text: as §1

MLK1(h) = target: T9, MLK1(h) (Homo sapiens, UniProt P80192); settings: atp_concentration=45, read-out: % of control remaining
T9 construct: gene MAP3K9
Source text: as §1

CDK9/cyclin T1(h) = CDK9/cyclin T1(h) (Homo sapiens, UniProt P50750); settings: atp_concentration=45, read-out: % of control remaining
Source text: as §1

CDK2/cyclinA(h) = CDK2/cyclinA(h) (Homo sapiens, UniProt P24941); settings: atp_concentration=45, read-out: % of control remaining
Source text: as §1

Sequence of ALK(h) (Q9UM73 whole entry): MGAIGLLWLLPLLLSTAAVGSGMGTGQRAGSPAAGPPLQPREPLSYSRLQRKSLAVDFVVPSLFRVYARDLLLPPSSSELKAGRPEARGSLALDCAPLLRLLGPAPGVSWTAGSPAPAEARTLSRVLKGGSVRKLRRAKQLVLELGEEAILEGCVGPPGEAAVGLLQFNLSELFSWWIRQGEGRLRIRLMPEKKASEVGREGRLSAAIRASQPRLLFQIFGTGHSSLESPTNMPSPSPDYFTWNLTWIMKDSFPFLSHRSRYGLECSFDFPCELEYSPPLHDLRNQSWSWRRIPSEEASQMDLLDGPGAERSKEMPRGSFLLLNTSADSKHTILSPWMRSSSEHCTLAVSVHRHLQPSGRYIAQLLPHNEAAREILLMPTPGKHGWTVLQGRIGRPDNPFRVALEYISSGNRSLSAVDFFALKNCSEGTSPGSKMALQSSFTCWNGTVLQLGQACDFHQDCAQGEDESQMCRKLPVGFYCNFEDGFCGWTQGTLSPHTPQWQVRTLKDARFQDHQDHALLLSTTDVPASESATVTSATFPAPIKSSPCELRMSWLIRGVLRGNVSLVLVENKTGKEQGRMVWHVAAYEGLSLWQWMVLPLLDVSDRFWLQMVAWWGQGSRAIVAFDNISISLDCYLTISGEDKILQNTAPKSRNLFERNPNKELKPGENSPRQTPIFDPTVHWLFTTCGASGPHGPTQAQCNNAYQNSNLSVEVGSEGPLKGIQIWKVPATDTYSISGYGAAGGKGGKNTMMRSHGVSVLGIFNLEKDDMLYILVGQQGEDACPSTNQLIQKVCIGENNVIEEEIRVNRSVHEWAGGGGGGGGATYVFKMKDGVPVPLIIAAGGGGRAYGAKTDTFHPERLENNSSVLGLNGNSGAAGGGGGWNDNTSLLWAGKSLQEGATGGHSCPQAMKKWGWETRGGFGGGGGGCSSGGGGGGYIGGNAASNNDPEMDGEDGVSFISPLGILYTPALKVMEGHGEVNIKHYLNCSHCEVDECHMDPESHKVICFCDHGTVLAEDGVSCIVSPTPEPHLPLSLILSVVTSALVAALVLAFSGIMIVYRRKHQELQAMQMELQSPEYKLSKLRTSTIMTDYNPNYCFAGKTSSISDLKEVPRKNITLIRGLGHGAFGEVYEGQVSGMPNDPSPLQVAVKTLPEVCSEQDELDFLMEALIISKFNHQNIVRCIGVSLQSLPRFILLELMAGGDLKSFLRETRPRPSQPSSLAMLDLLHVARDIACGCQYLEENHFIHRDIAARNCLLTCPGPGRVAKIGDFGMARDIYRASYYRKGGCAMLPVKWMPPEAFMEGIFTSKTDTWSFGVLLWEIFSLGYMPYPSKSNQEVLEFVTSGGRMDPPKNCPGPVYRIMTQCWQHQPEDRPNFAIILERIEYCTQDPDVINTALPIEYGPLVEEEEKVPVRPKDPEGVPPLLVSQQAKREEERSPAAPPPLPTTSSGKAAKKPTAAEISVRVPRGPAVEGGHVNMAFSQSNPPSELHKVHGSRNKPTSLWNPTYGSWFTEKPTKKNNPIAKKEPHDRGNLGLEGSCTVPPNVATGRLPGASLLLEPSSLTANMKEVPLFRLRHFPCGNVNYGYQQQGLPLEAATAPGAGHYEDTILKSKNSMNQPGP
T9 sequence (P80192 whole entry): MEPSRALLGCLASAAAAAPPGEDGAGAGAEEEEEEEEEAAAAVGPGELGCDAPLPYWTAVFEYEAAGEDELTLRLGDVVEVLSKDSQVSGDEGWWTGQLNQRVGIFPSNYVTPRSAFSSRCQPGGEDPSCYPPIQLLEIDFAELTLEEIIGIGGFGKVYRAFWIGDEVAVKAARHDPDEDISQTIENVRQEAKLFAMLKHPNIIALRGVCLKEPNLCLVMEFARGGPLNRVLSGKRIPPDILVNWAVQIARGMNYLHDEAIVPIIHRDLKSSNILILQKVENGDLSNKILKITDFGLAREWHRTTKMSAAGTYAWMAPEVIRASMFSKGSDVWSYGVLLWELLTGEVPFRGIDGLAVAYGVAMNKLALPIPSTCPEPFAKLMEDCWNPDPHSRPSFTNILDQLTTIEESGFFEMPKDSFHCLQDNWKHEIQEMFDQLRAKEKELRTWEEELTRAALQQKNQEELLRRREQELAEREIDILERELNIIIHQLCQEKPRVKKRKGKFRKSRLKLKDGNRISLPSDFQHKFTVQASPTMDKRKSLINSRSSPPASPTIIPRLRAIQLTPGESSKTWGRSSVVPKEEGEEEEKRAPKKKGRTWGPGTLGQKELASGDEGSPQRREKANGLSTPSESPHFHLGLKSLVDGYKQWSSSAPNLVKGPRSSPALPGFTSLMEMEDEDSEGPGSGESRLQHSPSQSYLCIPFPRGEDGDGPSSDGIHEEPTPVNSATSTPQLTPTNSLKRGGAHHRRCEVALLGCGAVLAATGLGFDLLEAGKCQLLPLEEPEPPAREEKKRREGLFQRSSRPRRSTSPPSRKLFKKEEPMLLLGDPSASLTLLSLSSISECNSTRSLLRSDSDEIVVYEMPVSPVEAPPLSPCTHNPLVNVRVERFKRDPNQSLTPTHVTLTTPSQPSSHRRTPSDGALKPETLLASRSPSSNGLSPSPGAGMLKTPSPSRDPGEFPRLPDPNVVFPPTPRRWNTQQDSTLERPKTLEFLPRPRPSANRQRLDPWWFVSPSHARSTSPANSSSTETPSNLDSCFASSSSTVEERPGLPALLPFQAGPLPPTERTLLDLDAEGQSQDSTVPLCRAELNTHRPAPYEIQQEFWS
T6 sequence (P31749 whole entry): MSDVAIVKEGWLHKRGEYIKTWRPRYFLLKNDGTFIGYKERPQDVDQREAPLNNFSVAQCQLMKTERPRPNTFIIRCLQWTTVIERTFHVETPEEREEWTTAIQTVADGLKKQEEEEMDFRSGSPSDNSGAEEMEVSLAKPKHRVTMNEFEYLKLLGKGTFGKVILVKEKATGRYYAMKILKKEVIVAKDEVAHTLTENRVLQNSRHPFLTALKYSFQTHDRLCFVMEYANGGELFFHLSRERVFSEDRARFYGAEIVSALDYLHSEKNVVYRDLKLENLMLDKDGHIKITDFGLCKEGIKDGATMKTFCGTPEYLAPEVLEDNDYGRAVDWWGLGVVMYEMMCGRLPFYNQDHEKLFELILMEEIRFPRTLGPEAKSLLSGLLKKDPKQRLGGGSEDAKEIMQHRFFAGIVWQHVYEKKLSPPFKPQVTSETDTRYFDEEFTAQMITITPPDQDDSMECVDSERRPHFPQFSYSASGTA
Sequence of CDK9/cyclin T1(h) (P50750 whole entry): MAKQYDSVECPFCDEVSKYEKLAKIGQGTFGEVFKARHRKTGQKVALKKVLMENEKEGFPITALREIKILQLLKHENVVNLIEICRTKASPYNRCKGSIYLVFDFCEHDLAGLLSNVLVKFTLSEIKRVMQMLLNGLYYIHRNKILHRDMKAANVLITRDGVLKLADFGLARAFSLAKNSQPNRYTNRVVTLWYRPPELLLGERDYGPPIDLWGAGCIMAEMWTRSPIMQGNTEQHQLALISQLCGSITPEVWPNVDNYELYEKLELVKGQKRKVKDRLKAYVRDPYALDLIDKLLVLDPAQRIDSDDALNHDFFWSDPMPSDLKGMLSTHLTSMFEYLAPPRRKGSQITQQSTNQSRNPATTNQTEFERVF
Sequence of CDK9/cyclin T1(h) (O60563 whole entry partner): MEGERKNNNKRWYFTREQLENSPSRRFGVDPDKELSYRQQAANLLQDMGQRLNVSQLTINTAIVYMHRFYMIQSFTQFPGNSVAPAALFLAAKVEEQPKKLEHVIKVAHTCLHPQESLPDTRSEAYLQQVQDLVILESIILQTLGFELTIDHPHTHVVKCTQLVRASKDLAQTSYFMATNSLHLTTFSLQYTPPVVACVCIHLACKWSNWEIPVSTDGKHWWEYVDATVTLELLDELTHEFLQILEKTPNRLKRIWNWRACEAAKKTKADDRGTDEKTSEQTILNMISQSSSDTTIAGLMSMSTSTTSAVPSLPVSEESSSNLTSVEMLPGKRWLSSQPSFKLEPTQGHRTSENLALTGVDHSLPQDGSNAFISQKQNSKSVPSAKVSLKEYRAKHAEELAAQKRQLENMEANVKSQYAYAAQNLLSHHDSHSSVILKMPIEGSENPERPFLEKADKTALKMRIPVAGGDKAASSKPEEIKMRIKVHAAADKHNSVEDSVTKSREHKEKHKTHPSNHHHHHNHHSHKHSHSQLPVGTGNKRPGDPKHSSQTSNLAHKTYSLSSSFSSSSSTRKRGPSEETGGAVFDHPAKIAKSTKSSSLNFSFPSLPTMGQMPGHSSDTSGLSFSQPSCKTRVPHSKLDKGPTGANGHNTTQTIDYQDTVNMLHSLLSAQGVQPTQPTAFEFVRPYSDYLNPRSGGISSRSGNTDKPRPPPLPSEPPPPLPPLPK
T7 sequence (Q9HCP0 whole entry): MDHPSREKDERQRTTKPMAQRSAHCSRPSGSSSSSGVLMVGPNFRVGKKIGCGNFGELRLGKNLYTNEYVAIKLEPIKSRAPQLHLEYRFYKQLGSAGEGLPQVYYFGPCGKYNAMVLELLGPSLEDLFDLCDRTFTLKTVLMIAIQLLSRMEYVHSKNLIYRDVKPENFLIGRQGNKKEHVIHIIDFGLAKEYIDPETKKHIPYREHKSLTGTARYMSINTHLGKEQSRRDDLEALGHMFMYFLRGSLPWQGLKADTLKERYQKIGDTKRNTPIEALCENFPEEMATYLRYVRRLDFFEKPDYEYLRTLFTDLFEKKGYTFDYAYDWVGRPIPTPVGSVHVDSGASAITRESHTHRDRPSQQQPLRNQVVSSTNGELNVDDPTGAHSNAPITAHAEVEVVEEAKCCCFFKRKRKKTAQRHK
T8 sequence (P11309 whole entry): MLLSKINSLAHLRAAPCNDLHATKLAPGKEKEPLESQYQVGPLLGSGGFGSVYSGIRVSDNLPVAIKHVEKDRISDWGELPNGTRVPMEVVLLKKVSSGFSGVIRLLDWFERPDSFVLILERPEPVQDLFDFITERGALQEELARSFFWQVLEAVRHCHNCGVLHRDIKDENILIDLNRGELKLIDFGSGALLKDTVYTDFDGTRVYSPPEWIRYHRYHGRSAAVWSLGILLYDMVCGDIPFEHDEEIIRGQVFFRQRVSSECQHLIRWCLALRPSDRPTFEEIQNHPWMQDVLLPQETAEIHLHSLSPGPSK

C[C@H](C(=O)O)[C@@H](NC(=O)c1ncnc2[nH]ccc12)c1ccc(Br)cc1 [ASAP-0014722]
remaining activity at 10 µM (CK2α2(h); batch_name=ASAP-0014722-002): 91%
remaining activity at 10 µM (ALK(h); batch_name=ASAP-0014722-002): 99%
remaining activity at 10 µM (Rse(h); batch_name=ASAP-0014722-002): 87%
remaining activity at 10 µM (EGFR(h); batch_name=ASAP-0014722-002): 93%
remaining activity at 10 µM (Abl(h); batch_name=ASAP-0014722-002): 97%
remaining activity at 10 µM (SRPK1(h); batch_name=ASAP-0014722-002): 97%
remaining activity at 10 µM (MEK1(h); batch_name=ASAP-0014722-002): 89%
remaining activity at 10 µM (GSK3β(h); batch_name=ASAP-0014722-002): 93%
remaining activity at 10 µM (PKBα(h); batch_name=ASAP-0014722-002): 95%
remaining activity at 10 µM (CK1γ1(h); batch_name=ASAP-0014722-002): 92%
remaining activity at 10 µM (Pim-1(h); batch_name=ASAP-0014722-002): 95%
remaining activity at 10 µM (MLK1(h); batch_name=ASAP-0014722-002): 86%
remaining activity at 10 µM (CDK9/cyclin T1(h); batch_name=ASAP-0014722-002): 103%
remaining activity at 10 µM (CDK2/cyclinA(h); batch_name=ASAP-0014722-002): 102%

CNCc1cc(-c2cc3c(N[C@@H](c4ccc5c(c4)S(=O)(=O)CCC5)C(C)C)ncnc3[nH]2)co1 [ASAP-0011176]
remaining activity at 10 µM (CK2α2(h); batch_name=ASAP-0011176-002): 90%
remaining activity at 10 µM (ALK(h); batch_name=ASAP-0011176-002): 99%
remaining activity at 10 µM (Rse(h); batch_name=ASAP-0011176-002): 81%
remaining activity at 10 µM (EGFR(h); batch_name=ASAP-0011176-002): 97%
remaining activity at 10 µM (Abl(h); batch_name=ASAP-0011176-002): 51%
remaining activity at 10 µM (SRPK1(h); batch_name=ASAP-0011176-002): 101%
remaining activity at 10 µM (MEK1(h); batch_name=ASAP-0011176-002): 97%
remaining activity at 10 µM (GSK3β(h); batch_name=ASAP-0011176-002): 92%
remaining activity at 10 µM (PKBα(h); batch_name=ASAP-0011176-002): 96%
remaining activity at 10 µM (CK1γ1(h); batch_name=ASAP-0011176-002): 99%
remaining activity at 10 µM (Pim-1(h); batch_name=ASAP-0011176-002): 93%
remaining activity at 10 µM (MLK1(h); batch_name=ASAP-0011176-002): 86%
remaining activity at 10 µM (CDK9/cyclin T1(h); batch_name=ASAP-0011176-002): 40%
remaining activity at 10 µM (CDK2/cyclinA(h); batch_name=ASAP-0011176-002): 98%

CC(C)[C@H](Nc1ncnc2[nH]ccc12)c1ccc2c(c1)S(=O)(=O)CCC2 [ASAP-0008674]
remaining activity at 10 µM (CK2α2(h); batch_name=ASAP-0008674-002): 87%
remaining activity at 10 µM (ALK(h); batch_name=ASAP-0008674-002): 100%
remaining activity at 10 µM (Rse(h); batch_name=ASAP-0008674-002): 86%
remaining activity at 10 µM (EGFR(h); batch_name=ASAP-0008674-002): 95%
remaining activity at 10 µM (Abl(h); batch_name=ASAP-0008674-002): 105%
remaining activity at 10 µM (SRPK1(h); batch_name=ASAP-0008674-002): 100%
remaining activity at 10 µM (MEK1(h); batch_name=ASAP-0008674-002): 94%
remaining activity at 10 µM (GSK3β(h); batch_name=ASAP-0008674-002): 94%
remaining activity at 10 µM (PKBα(h); batch_name=ASAP-0008674-002): 95%
remaining activity at 10 µM (CK1γ1(h); batch_name=ASAP-0008674-002): 97%
remaining activity at 10 µM (Pim-1(h); batch_name=ASAP-0008674-002): 91%
remaining activity at 10 µM (MLK1(h); batch_name=ASAP-0008674-002): 84%
remaining activity at 10 µM (CDK9/cyclin T1(h); batch_name=ASAP-0008674-002): 112%
remaining activity at 10 µM (CDK2/cyclinA(h); batch_name=ASAP-0008674-002): 102%

CC(C)[C@H](Nc1ncnc2[nH]c(-c3cnn(C)c3C#N)cc12)c1ccc2c(n1)OCCO2 [ASAP-0010715]
remaining activity at 10 µM (CK2α2(h); batch_name=ASAP-0010715-002): 95%
remaining activity at 10 µM (ALK(h); batch_name=ASAP-0010715-002): 116%
remaining activity at 10 µM (Rse(h); batch_name=ASAP-0010715-002): 105%
remaining activity at 10 µM (EGFR(h); batch_name=ASAP-0010715-002): 90%
remaining activity at 10 µM (Abl(h); batch_name=ASAP-0010715-002): 57%
remaining activity at 10 µM (SRPK1(h); batch_name=ASAP-0010715-002): 111%
remaining activity at 10 µM (MEK1(h); batch_name=ASAP-0010715-002): 97%
remaining activity at 10 µM (GSK3β(h); batch_name=ASAP-0010715-002): 98%
remaining activity at 10 µM (PKBα(h); batch_name=ASAP-0010715-002): 90%
remaining activity at 10 µM (CK1γ1(h); batch_name=ASAP-0010715-002): 100%
remaining activity at 10 µM (Pim-1(h); batch_name=ASAP-0010715-002): 98%
remaining activity at 10 µM (MLK1(h); batch_name=ASAP-0010715-002): 73%
remaining activity at 10 µM (CDK9/cyclin T1(h); batch_name=ASAP-0010715-002): 79%
remaining activity at 10 µM (CDK2/cyclinA(h); batch_name=ASAP-0010715-002): 104%

Cn1ncc(-c2cc3c(N[C@@H](c4ccc5c(n4)OCCO5)C(C)(C)C)ncnc3[nH]2)c1C#N [ASAP-0011221]
remaining activity at 10 µM (CK2α2(h); batch_name=ASAP-0011221-002): 92%
remaining activity at 10 µM (ALK(h); batch_name=ASAP-0011221-002): 117%
remaining activity at 10 µM (Rse(h); batch_name=ASAP-0011221-002): 110%
remaining activity at 10 µM (EGFR(h); batch_name=ASAP-0011221-002): 99%
remaining activity at 10 µM (Abl(h); batch_name=ASAP-0011221-002): 81%
remaining activity at 10 µM (SRPK1(h); batch_name=ASAP-0011221-002): 117%
remaining activity at 10 µM (MEK1(h); batch_name=ASAP-0011221-002): 98%
remaining activity at 10 µM (GSK3β(h); batch_name=ASAP-0011221-002): 98%
remaining activity at 10 µM (PKBα(h); batch_name=ASAP-0011221-002): 103%
remaining activity at 10 µM (CK1γ1(h); batch_name=ASAP-0011221-002): 94%
remaining activity at 10 µM (Pim-1(h); batch_name=ASAP-0011221-002): 107%
remaining activity at 10 µM (MLK1(h); batch_name=ASAP-0011221-002): 94%
remaining activity at 10 µM (CDK9/cyclin T1(h); batch_name=ASAP-0011221-002): 130%
remaining activity at 10 µM (CDK2/cyclinA(h); batch_name=ASAP-0011221-002): 114%

CC(C)C(Nc1ncnc2[nH]c(C(=O)NC3CCN(C)C3)cc12)c1ccc2c(c1)S(=O)(=O)CCC2 (stereo not drawn) [ASAP-0011198]
remaining activity at 10 µM (CK2α2(h); batch_name=ASAP-0011198-002): 98%
remaining activity at 10 µM (ALK(h); batch_name=ASAP-0011198-002): 106%
remaining activity at 10 µM (Rse(h); batch_name=ASAP-0011198-002): 107%
remaining activity at 10 µM (EGFR(h); batch_name=ASAP-0011198-002): 102%
remaining activity at 10 µM (Abl(h); batch_name=ASAP-0011198-002): 100%
remaining activity at 10 µM (SRPK1(h); batch_name=ASAP-0011198-002): 108%
remaining activity at 10 µM (MEK1(h); batch_name=ASAP-0011198-002): 107%
remaining activity at 10 µM (GSK3β(h); batch_name=ASAP-0011198-002): 93%
remaining activity at 10 µM (PKBα(h); batch_name=ASAP-0011198-002): 88%
remaining activity at 10 µM (CK1γ1(h); batch_name=ASAP-0011198-002): 100%
remaining activity at 10 µM (Pim-1(h); batch_name=ASAP-0011198-002): 97%
remaining activity at 10 µM (MLK1(h); batch_name=ASAP-0011198-002): 96%
remaining activity at 10 µM (CDK9/cyclin T1(h); batch_name=ASAP-0011198-002): 108%
remaining activity at 10 µM (CDK2/cyclinA(h); batch_name=ASAP-0011198-002): 117%
